# In patent US4156730A, “Pharmaceutically active compounds, preparation thereof, intermediates useful in such preparation and compositions containing the compounds” (Beecham Group Limited, priority 1976, dated 1979):
# Tested on: 5-hydroxytryptamine induced bronchoconstriction
# Assay: inhibition of 5-hydroxytryptamine induced bronchoconstriction (Konzett-Rossler preparation)
# Assay type: in vivo
# Details: Cavia porcellus, iv; intravenously; anaesthetised, artificially respired guinea pig; read-out: IC50 for inhibition of bronchoconstriction
# Description: The compounds were examined for their ability to inhibit 5-hydroxytryptamine induced bronchoconstriction in the anaesthetised, artifically respired guinea pig (Konzett-Rossler preparation - ref: H. Konzett and R. Rossler, 1940, Arch. exp. Path. Pharmak., 195, 71).
smiles,measurement,value
"CCCCC(C)(O)CCCCN1C(=O)CC(=O)C1CCCCCCC(=O)OC (stereo not shown) [Compound 30, 2-(6'-Methoxycarbonyl-n-hexyl)-1-(5""-hydroxy-5""-methyl-n-nonyl)-pyrrolidin-3,5-dione]",ED50,0.012 mg/kg
